# Laboratory results from patent US20250152592A1, “PHARMACEUTICAL COMPOSITION COMPRISING ALLOPURINOL, FEBUXOSTAT OR PHARMACEUTICALLY ACCEPTABLE SALT THEREOF FOR PREVENTION OR TREATMENT OF CHRONIC KIDNEY DISEASE IN SUBJECT HAVING HIGH SERUM URIC ACID CONCENTRATION” (Indream Healthcare Inc., priority 2022, published 2025).
# Tested on: patients with gout and a history of major cardiovascular diseases
# Experiment: eGFR over time by average serum uric acid concentration, analysis of clinical trial data
# Assay type: in vivo, human
# Conditions: for eGFR Mean (95% CI): febuxostat group
# Method: In order to evaluate non-inferiority of febuxostat to allopurinol related to cardiovascular risk, a clinical trial was designed and proceeded.
# A multicenter, randomized, double-blind non-inferiority trial was performed. The details of the clinical trial design have been published previously. An independent data and safety monitoring committee with access to unblinded data monitored the clinical trial. The statistical analysis for the data and the safety monitoring committee was performed by an independent statistical group (WebbWrites).
# The patients were regarded as having a history of major cardiovascular diseases, if they had myocardial infarction, hospitalization for unstable angina, stroke, hospitalization for transient ischemic attack, peripheral vascular disease, or diabetes mellitus symptoms. All participants provided a prior informed consent form.
# The patients were randomly assigned so that they received febuxostat or allopurinol administered once a day in a double-blind manner. The randomization was stratified according to the estimated creatinine clearance at baseline (patient group having an estimated creatinine clearance ≥60 ml per minute vs patient group having an estimated creatinine clearance ≥30 and <60 ml per minute).
# The dose of allopurinol was modified according to a kidney function. The patients with the estimated creatinine clearance 60 ml or more per minute i) initially received allopurinol at a dose of 300 mg once a day, and the dose was increased in 100 mg increments monthly until the patient had the serum uric acid concentration of less than 6.0 mg per deciliter or the dosage of allopurinol was 600 mg once a day. The patient having the estimated creatinine clearance of 30 ml or more and less than 60 ml per minute initially received 200 mg of allopurinol, and then the dose was increased in 100 mg increments until the patient either had the serum uric acid concentration of less than 6.0 mg per deciliter or was receiving the allopurinol dose of 400 mg once daily.
# The dose of febuxostat was not modified according to the kidney function. The patients who were randomly assigned to receive febuxostat initially received 40 mg once a daily, and continued to receive the same dosage if the serum uric acid concentration was less than 6.0 mg per deciliter after 2 weeks of the treatment. If the serum uric acid concentration was higher than 6.0 mg per deciliter at 2nd week visit, the dose of febuxostat was increased to 80 mg once daily for the remainder of the trial.
# During the period, the administration of a double-blind and double-dummy trial medications was guided by an interactive voice-response system which was a procedure to prevent unblinding for the patients whose dose was not adjusted. After completing dose adjustment, the urate level was concealed from the investigators, and the treatment was managed throughout the trial using the interactive voice-response system.
# Outpatient visits were conducted according to the following schedule: during screening and randomization, and at 2, 4, 6, 8, 10, 12, and 24 weeks after the randomization, and every 6 months during the subsequent years of the trial. The patients with reduced kidney function or, the patients aged 65 years or older at randomization were visited at 9 and 15 months for monitoring the serum chemical profile. If the patient agreed to be monitored, but would not return for study visit, telephone contact was made, but such method was not preferred or recommended.
# In order to confirm the effect of allopurinol and febuxostat on the kidney disease, the data obtained in the clinical trial described above was analyzed.
smiles,measurement,setting,value
Cc1nc(-c2ccc(OCC(C)C)c(C#N)c2)sc1C(=O)O [febuxostat],prevention or treatment of chronic kidney disease when serum uric acid maintained below 6,"blood glucose ≥126 mg/dl, DBP ≤80 mmHg, SBP ≤130 mmHg, serum uric acid ≥8 mg/dl, or gout history 10 years or more",effectively prevented or treated
same,eGFR Mean (95% CI),"Baseline UA≥ 8, Average UA <6, Baseline",61.87 (60.73-63.01) ml/min/1.73 m^2
same,eGFR Mean (95% CI),"Baseline UA≥ 8, Average UA <6, Month 3",62.09 (60.91-63.28) ml/min/1.73 m^2
same,eGFR Mean (95% CI),"Baseline UA≥ 8, Average UA <6, Month 18",62.99 (61.62-64.36) ml/min/1.73 m^2
same,eGFR Mean (95% CI),"Baseline UA≥ 8, Average UA <6, Month 24",63.15 (61.69-64.61) ml/min/1.73 m^2
same,eGFR Mean (95% CI),"Baseline UA≥ 8, Average UA <6, Month 30",63.85 (62.28-65.43) ml/min/1.73 m^2
same,eGFR Mean (95% CI),"Baseline UA≥ 8, Average UA <6, Month 36",64.04 (62.38-65.70) ml/min/1.73 m^2
same,eGFR Mean (95% CI),"Baseline UA≥ 8, Average UA <6, Month 42",63.75 (61.92-65.59) ml/min/1.73 m^2
same,eGFR Mean (95% CI),"Baseline UA≥ 8, Average UA <6, Month 48",65.32 (63.28-67.37) ml/min/1.73 m^2
same,eGFR Mean (95% CI),"Baseline UA≥ 8, Average UA <6, Month 54",66.35 (64.11-68.58) ml/min/1.73 m^2
same,eGFR Mean (95% CI),"Baseline UA≥ 8, Average UA <6, Month 60",66.48 (63.94-69.02) ml/min/1.73 m^2
same,eGFR Mean (95% CI),"Baseline UA≥ 8, Average UA <6, Week 2",62.03 (60.84-63.22) ml/min/1.73 m^2
same,eGFR Mean (95% CI),"Baseline UA≥ 8, Average UA ≥6, Baseline",63.17 (61.34-65.00) ml/min/1.73 m^2
same,eGFR Mean (95% CI),"Baseline UA≥ 8, Average UA ≥6, Month 3",63.02 (61.13-64.91) ml/min/1.73 m^2
same,eGFR Mean (95% CI),"Baseline UA≥ 8, Average UA ≥6, Month 18",61.52 (59.25-63.79) ml/min/1.73 m^2
same,eGFR Mean (95% CI),"Baseline UA≥ 8, Average UA ≥6, Month 24",62.08 (59.58-64.57) ml/min/1.73 m^2
same,eGFR Mean (95% CI),"Baseline UA≥ 8, Average UA ≥6, Month 30",60.68 (57.82-63.54) ml/min/1.73 m^2
same,eGFR Mean (95% CI),"Baseline UA≥ 8, Average UA ≥6, Month 36",61.32 (58.15-64.49) ml/min/1.73 m^2
same,eGFR Mean (95% CI),"Baseline UA≥ 8, Average UA ≥6, Month 42",60.90 (57.46-64.34) ml/min/1.73 m^2
same,eGFR Mean (95% CI),"Baseline UA≥ 8, Average UA ≥6, Month 48",61.54 (57.81-65.27) ml/min/1.73 m^2
same,eGFR Mean (95% CI),"Baseline UA≥ 8, Average UA ≥6, Month 54",62.30 (58.01-66.59) ml/min/1.73 m^2
same,eGFR Mean (95% CI),"Baseline UA≥ 8, Average UA ≥6, Month 60",61.06 (55.87-66.24) ml/min/1.73 m^2
same,eGFR Mean (95% CI),"Baseline UA≥ 8, Average UA ≥6, Week 2",63.18 (61.22-65.15) ml/min/1.73 m^2
same,eGFR Mean (95% CI),"Baseline blood glucose level ≥126, Average UA <6, Baseline",64.23 (62.54-65.93) ml/min/1.73 m^2
same,eGFR Mean (95% CI),"Baseline blood glucose level ≥126, Average UA <6, Month 3",63.54 (61.75-65.32) ml/min/1.73 m^2
same,eGFR Mean (95% CI),"Baseline blood glucose level ≥126, Average UA <6, Month 6",63.33 (61.52-65.14) ml/min/1.73 m^2
same,eGFR Mean (95% CI),"Baseline blood glucose level ≥126, Average UA <6, Month 12",64.32 (62.49-66.15) ml/min/1.73 m^2
same,eGFR Mean (95% CI),"Baseline blood glucose level ≥126, Average UA <6, Month 18",63.84 (61.79-65.89) ml/min/1.73 m^2
same,eGFR Mean (95% CI),"Baseline blood glucose level ≥126, Average UA <6, Month 24",64.49 (62.28-66.69) ml/min/1.73 m^2
same,eGFR Mean (95% CI),"Baseline blood glucose level ≥126, Average UA <6, Month 30",63.64 (61.38-65.91) ml/min/1.73 m^2
same,eGFR Mean (95% CI),"Baseline blood glucose level ≥126, Average UA <6, Month 36",64.30 (61.77-66.83) ml/min/1.73 m^2
same,eGFR Mean (95% CI),"Baseline blood glucose level ≥126, Average UA <6, Month 42",63.94 (61.12-66.76) ml/min/1.73 m^2
same,eGFR Mean (95% CI),"Baseline blood glucose level ≥126, Average UA <6, Month 48",65.35 (62.27-68.43) ml/min/1.73 m^2
same,eGFR Mean (95% CI),"Baseline blood glucose level ≥126, Average UA <6, Month 54",66.66 (63.21-70.10) ml/min/1.73 m^2
same,eGFR Mean (95% CI),"Baseline blood glucose level ≥126, Average UA <6, Month 60",67.78 (63.68-71.89) ml/min/1.73 m^2
same,eGFR Mean (95% CI),"Baseline blood glucose level ≥126, Average UA <6, Week 2",64.06 (62.29-65.83) ml/min/1.73 m^2
same,eGFR Mean (95% CI),"Baseline blood glucose level ≥126, Average UA ≥6, Baseline",65.94 (62.79-69.10) ml/min/1.73 m^2
same,eGFR Mean (95% CI),"Baseline blood glucose level ≥126, Average UA ≥6, Month 3",64.51 (61.21-67.81) ml/min/1.73 m^2
same,eGFR Mean (95% CI),"Baseline blood glucose level ≥126, Average UA ≥6, Month 6",64.04 (60.85-67.23) ml/min/1.73 m^2
same,eGFR Mean (95% CI),"Baseline blood glucose level ≥126, Average UA ≥6, Month 12",62.81 (59.35-66.28) ml/min/1.73 m^2
same,eGFR Mean (95% CI),"Baseline blood glucose level ≥126, Average UA ≥6, Month 18",62.28 (58.22-66.35) ml/min/1.73 m^2
same,eGFR Mean (95% CI),"Baseline blood glucose level ≥126, Average UA ≥6, Month 24",62.44 (58.21-66.68) ml/min/1.73 m^2
same,eGFR Mean (95% CI),"Baseline blood glucose level ≥126, Average UA ≥6, Month 30",61.66 (57.17-66.16) ml/min/1.73 m^2
same,eGFR Mean (95% CI),"Baseline blood glucose level ≥126, Average UA ≥6, Month 36",62.64 (57.30-67.99) ml/min/1.73 m^2
same,eGFR Mean (95% CI),"Baseline blood glucose level ≥126, Average UA ≥6, Month 42",62.33 (56.68-67.99) ml/min/1.73 m^2
same,eGFR Mean (95% CI),"Baseline blood glucose level ≥126, Average UA ≥6, Month 48",60.51 (54.59-66.44) ml/min/1.73 m^2
same,eGFR Mean (95% CI),"Baseline blood glucose level ≥126, Average UA ≥6, Month 54",60.70 (53.73-67.67) ml/min/1.73 m^2
same,eGFR Mean (95% CI),"Baseline blood glucose level ≥126, Average UA ≥6, Month 60",60.00 (50.87-69.14) ml/min/1.73 m^2
same,eGFR Mean (95% CI),"Baseline blood glucose level ≥126, Average UA ≥6, Week 2",64.56 (61.25-67.87) ml/min/1.73 m^2
same,eGFR Mean (95% CI),"DBP <80, Average UA <6, Baseline",62.24 (61.02-63.45) ml/min/1.73 m^2
same,eGFR Mean (95% CI),"DBP <80, Average UA <6, Month 3",61.85 (60.63-63.08) ml/min/1.73 m^2
same,eGFR Mean (95% CI),"DBP <80, Average UA <6, Month 6",61.84 (60.56-63.11) ml/min/1.73 m^2
same,eGFR Mean (95% CI),"DBP <80, Average UA <6, Month 12",63.06 (61.79-64.33) ml/min/1.73 m^2
